Among the test systems are CCRF-CEM; 786-0; ACHN; SNB-19; RXF 393; HCT-116; SNB-75; HL-60; CAKI-1; MOLT-4; U-251; RPMI-8226; TK-10; UO-31; SF-295; SK-OV-3; K562; HT-29; SF-539.
Common to all, as to test: growth of human tumour cells (NCI), 48 h

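Method: 48-hour compound exposure of cells in 96-well plates, five concentrations, linear interpolation of endpoints. The concentration for 50% growth inhibition is given as GI50.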 Active and inactive are the calls of the source. Cut-off read from the data, not from the text of the source: active = GI50 up to about 1.1 µM and inactive = higher. Some results are limits rather than exact numbers.

With `CCC1C(C(=O)Nc2ccccc2C)=C(C)NC(C)=C1c1ccccc1C` (stereo unspecified), the GI50 is 55.1 µM (inactive) in the assay with CCRF-CEM; > 100 µM (inactive) in the assay with 786-0; > 100 µM (inactive) in the assay with ACHN; > 100 µM (inactive) in the assay on SNB-19; > 100 µM (inactive) in the assay on RXF 393; > 48.6 µM (inactive) in the assay on HCT-116. Moreover, the GI50 with SNB-75 is > 100 µM (inactive); with HL-60 it was 11.6 µM (inactive); in the assay with CAKI-1, > 100 µM (inactive); in the assay on MOLT-4, > 100 µM (inactive); in the assay on U-251 it was > 100 µM (inactive); with RPMI-8226, 31.8 µM (inactive). For the same compound, the GI50 in the assay on TK-10 was > 100 µM (inactive); in the assay on UO-31 it was > 100 µM (inactive); in the assay on SF-295, > 100 µM (inactive); with SK-OV-3, > 100 µM (inactive); in the assay with K562, 80 µM (inactive); with HT-29, > 100 µM (inactive). For the same compound, the GI50 in the assay on SF-539 is > 100 µM (inactive).

Consider `O=CN1CCN(C=S)CC1`, for which the GI50 in the assay with CCRF-CEM, with 786-0, in the assay on ACHN, in the assay with SNB-19, in the assay on RXF 393 and with HCT-116 was > 100 µM (inactive) each time. In addition, the GI50 in the assay on SNB-75, with HL-60, in the assay on CAKI-1, in the assay with MOLT-4, in the assay with U-251 and in the assay on RPMI-8226 was > 100 µM (inactive) in each case. The GI50 with TK-10, with UO-31, in the assay with SF-295, in the assay with SK-OV-3, with K562 and in the assay with HT-29 was > 100 µM (inactive) throughout. Further, in the assay on SF-539, the GI50 was > 100 µM (inactive).

Consider `Cc1ccc2c(c1)SC(c1cc3c(cc1Br)OCO3)S2` (stereo unspecified), for which the GI50 in the assay on CCRF-CEM was > 31.6 µM (inactive); with 786-0, > 31.6 µM (inactive); in the assay with ACHN, > 31.6 µM (inactive); with SNB-19, > 100 µM (inactive); in the assay with RXF 393, 12.3 µM (inactive); with HCT-116, 23.9 µM (inactive). In addition, the GI50 in the assay with SNB-75 was 0.516 µM (active); in the assay with HL-60, 22.6 µM (inactive); in the assay on CAKI-1, > 76 µM (inactive); with MOLT-4, 31.4 µM (inactive); in the assay with U-251 it was > 31.6 µM (inactive); with RPMI-8226 it was 18.5 µM (inactive). Moreover, the GI50 in the assay with TK-10 was > 31.6 µM (inactive); in the assay with UO-31, 19.7 µM (inactive); in the assay on SF-295 it was > 31.6 µM (inactive); with SK-OV-3, > 31.6 µM (inactive); in the assay with K562 it was 26.9 µM (inactive); in the assay on HT-29, 18.7 µM (inactive). In addition, the GI50 in the assay with SF-539 was > 31.6 µM (inactive).

As to `COC(=O)[C@@H]1C(=O)O[C@@H](c2cc(OC)c(OC)cc2OC)[C@@H]1C(=O)OC.COC(=O)[C@H]1C(=O)O[C@@H](c2cc(OC)c(OC)cc2OC)[C@@H]1C(=O)OC`, the GI50 in the assay with CCRF-CEM, in the assay on 786-0, in the assay on ACHN, in the assay on SNB-19, in the assay on RXF 393 and with HCT-116 was > 100 µM (inactive) throughout. Also, the GI50 with SNB-75, with HL-60, in the assay with CAKI-1, in the assay with MOLT-4, in the assay on U-251 and with RPMI-8226 was > 100 µM (inactive) each time. Also, the GI50 with TK-10, in the assay on UO-31, with SF-295, in the assay on SK-OV-3, in the assay with K562 and in the assay on HT-29 was > 100 µM (inactive) in each case. Also, the GI50 in the assay on SF-539 is > 100 µM (inactive).

Source of the values: ChEMBL document CHEMBL1201862, “PubChem BioAssay data set” (2004).
